Laboratory results taken from patent US12599548B2, “Method of treating oxidative stress in skin and compositions therefor” (The Procter & Gamble Company, priority 2020, dated 2026).

Tested on: Keratinocytes (H-tert-keratinocytes) subjected to oxidative stress
Assay: Oxidative Stress Test (cellular ATP level, ATP Glo luminescence)
Type: cell-based, human
Conditions: 90 minutes
Experimental: This test method provides a suitable way to determine the ability of a test agent to improve cellular ATP production in cells subjected to oxidative stress.
Keratinocytes (e.g., H-tert-keratinocytes from University of Texas Southwestern) are cultured in T150 flasks in EpiLife Medium (e.g., catalogue #MEPICFPRF500 from Thermo Fisher Scientific) supplemented with human keratinocyte growth supplement (e.g., catalogue #S-001-5 from Thermo Fisher Scientific) and 1% penicillin/streptomycin (e.g., catalogue #15140-122 from Thermo Fisher Scientific). When the keratinocytes reach ˜70% confluency, they are plated out into 96 well plates (white, clear bottom with 20,000 cells/well). Incubate the plates for 24 hours before the experimental stress and treatment are applied.
The 96 well plate is divided into three groups of samples (wells) as follows: (i) no stress and no treatment is applied, (ii) stress is applied but no treatment and (iii) stress and treatment are both applied. In combination experiments, stress plus 2 treatments may be applied. For the no stress/no treatment samples (i.e., group (i) above), the culture medium is simply refreshed. For the stressed samples (i.e., group (ii) and (iii) above), culture medium containing 400 μM hydrogen peroxide (HOOH) is used to replace the medium. For the treatment samples (i.e., group (iii) above), immediately after adding the HOOH, pipette the treatment(s) into the wells from a 100× master stock. Return the plates to the CO2 incubator for 90 minutes before measuring ATP.
ATP is measured by removing the media from the samples and replacing it with ATP Glo® reagent (available from Promega, Madison, WI), or equivalent, per manufacturer's instructions. After 10 minutes of exposure at room temperature, the luminescence of each sample can be measured using a Perkin Elmer ENVISION brand plate reader or equivalent. Luminescent counts are directly proportional to ATP level in the cells. Record the luminescent counts for each sample.
Replicates of each treatment group are averaged together, and standard p-value calculations are used (2-sided, equal variance) to calculate significance. In cases where 2 treatments appear to synergistically enhance ATP levels, the results of the combined treatments can be compared to the sum of the individual treatments to determine a synergy factor. The synergy factor is calculated as the ratio of the observed effect from the combined treatments divided by the sum of the results from each individual treatment.
The test agents used in the Oxidative Stress Test are limited to relatively low concentrations due to cell toxicity. That is, applying high concentrations of the test agent directly to “unprotected” keratinocytes may kill some of all of the cells, which would obviously skew the test results. […]

## CCCCCCCCC(CO)CCCCCC (stereo not shown) [Fatty Alcohol, hexyldecanol]
Fatty Alcohol 0.2 ppm, 400 μM hydrogen peroxide
  Measured ATP level: 368.3
Fatty Alcohol 1 ppm, keratinocytes stressed with 400 μM hydrogen peroxide, luminescent counts
  Measured ATP level: 534.3
Fatty Alcohol 5 ppm, 400 μM hydrogen peroxide
  Measured ATP level: 708.0
Fatty Alcohol 50 ppm, 400 μM hydrogen peroxide
  Measured ATP level: 962.3
